Target: T1, OGFOD1 (Homo sapiens, UniProt Q8N543)
T1 sequence (Q8N543 1-542): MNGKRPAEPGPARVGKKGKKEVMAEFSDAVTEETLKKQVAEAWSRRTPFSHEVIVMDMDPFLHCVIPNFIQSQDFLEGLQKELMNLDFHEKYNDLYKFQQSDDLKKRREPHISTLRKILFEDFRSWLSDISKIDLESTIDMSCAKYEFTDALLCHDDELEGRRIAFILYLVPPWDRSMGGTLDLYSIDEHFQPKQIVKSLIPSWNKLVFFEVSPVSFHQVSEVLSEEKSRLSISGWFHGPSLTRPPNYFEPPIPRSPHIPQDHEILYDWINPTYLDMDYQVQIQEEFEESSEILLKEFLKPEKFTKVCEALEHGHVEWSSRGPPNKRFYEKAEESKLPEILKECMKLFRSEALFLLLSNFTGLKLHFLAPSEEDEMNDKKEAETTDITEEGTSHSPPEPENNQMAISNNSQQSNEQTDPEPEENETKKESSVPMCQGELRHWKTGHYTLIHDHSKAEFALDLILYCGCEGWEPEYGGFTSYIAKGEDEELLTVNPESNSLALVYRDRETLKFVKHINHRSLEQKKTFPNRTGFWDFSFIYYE
Experiment: OGFOD1 inhibition assay: hydroxylation of RPS23 51-70 peptide by MALDI-TOF MS
Type: biochemical
Conditions: IC50 against OGFOD1, 1 μM OGFOD1; minimum measurable IC50 0.5 μM; values for 24 and 25 regarded as preliminary
Description: (§1) OGFOD1 inhibition assays were performed by determining the extent of hydroxylation of a 20mer fragment of human ribosomal protein S23 (RPS23) containing residues 51-70 (H2N- […]
(§2) -CONH2) by matrix-assisted laser desorption/ionization time-of-flight mass spectrometry (MALDI-TOF MS) using a Waters Micromass MALDI micro MX mass spectrometer and MassLynx 4.1, as previously described.[7,8] The optimized hydroxylation assay involved incubation of OGFOD1 (1 µM) with inhibitor (1 % v/v in DMSO) in the presence of (NH4)2Fe(SO4)2 (50 µM), the disodium salt of 2-oxoglutarate (25 µM), […]
OGFOD1 was pre-incubated with inhibitor for 5 min before initiation of the reaction via the addition of the other reagents. Reactions were quenched with formic acid (1 % v/v) after 15 min. Samples were prepared for MALDI using α-cyano-4-hydrocinnamic acid (CHCA; prepared in 50 % acetonitrile) as a matrix. Dose-responses were assessed in 8-point triplicates, normalized to a no enzyme negative control and a no inhibitor positive control. Non-linear regression analysis was performed using Prism (GraphPad). […]

| Compound | IC50 [µM] |
| --- | --- |
| Cn1c(O)c(C(=O)c2ccccc2)c(=O)n(C)c1=O [compound 24] | 30 |
| Cn1c(O)c(C(=O)Cc2ccccc2)c(=O)n(C)c1=O [compound 25] | 2 |

Same assay, conditions: OGFOD1 1 μM (Figure 3B)

| Compound | OGFOD1 inhibition in fragment-based screening, in words |
| --- | --- |
| CCOC(=O)CC(=O)OCC [compound 10, diethyl malonate] | poor inhibitors |
| CC(=O)C1CCCCC1=O (stereo not drawn) [compound 11, 2‐acetylcyclohexanone] | poor inhibitors |
| CC(=O)c1c(O)cccc1O [compound 16, 2′,6′‐dihydroxyacetophenone] | relatively poor OGFOD1 inhibitor |
| CC(=O)c1c(O)[nH]c(=O)[nH]c1=O [compound 18] | improved potency |
| CC(=O)c1c(O)[nH]c(=S)[nH]c1=O [compound 19] | did not substantially increase the potency |
| CC(=O)c1c(O)n(C)c(=O)n(C)c1=O [compound 20] | improved potency |

Same assay, conditions: OGFOD1 1 µM; inhibitors at 100, 20, 5, 1 µM (Figure S9) or 5 and 1 µM (Figure S10)

| Compound | relative potency of OGFOD1 inhibition in barbiturate SAR, in words |
| --- | --- |
| Cn1c(O)c(C(=O)CCCc2ccccc2)c(=O)n(C)c1=O [compound 27] | did not provide a substantial increase in potency |
| Cn1c(O)c(C(=O)CCCCc2ccccc2)c(=O)n(C)c1=O [compound 28] | did not provide a substantial increase in potency |
| CCn1c(O)c(C(=O)CCC2CCCC2)c(=O)n(CC)c1=O [compound 30] | less potent than 29 |
| O=C(CCC1CCCC1)c1c(O)n(C2CCCCC2)c(=O)n(C2CCCCC2)c1=O [compound 31] | less potent than 29 |
| Cn1c(O)c(C(=O)NCc2ccccc2)c(=O)n(C)c1=O [compound 46] | had little effect |

Same assay, conditions: OGFOD1 and PHD2 1 µM each; 23 at 100 µM (Figure 4; Figure S6)

| Compound | selectivity for OGFOD1 over PHD2, in words |
| --- | --- |
| CCOC(=O)CNC(=O)c1c(O)[nH]c(=O)[nH]c1=O [compound 22] | did not manifest clear selectivity for OGFOD1 over PHD2 |
| CCOC(=O)CNC(=O)c1c(O)n(C)c(=O)n(C)c1=O [compound 23] | did not manifest clear selectivity for OGFOD1 over PHD2 |

Same assay, conditions: inhibitor 100 µM, OGFOD1 1 µM (Figures S1, S2)

| Compound | inhibition of OGFOD1 hydroxylation activity, in words |
| --- | --- |
| O=C1CCCC(=O)C1C(=O)c1ccc(C(F)(F)F)cc1[N+](=O)[O-] [compound 1, nitisinone, reference compound] | is an OGFOD1 inhibitor |
| CCC(O)=C1C(=O)CC(C(=O)O)CC1=O (stereo not drawn) [compound 4, prohexadione‐calcium, reference compound] | inhibition of OGFOD1 |
| O=C(O)CNC(=O)c1nc(Cl)c2ccccc2c1O [compound 7, reference compound] | inhibited OGFOD1 |
| Cc1nc(C(=O)NCC(=O)O)c(O)c2ccc(Oc3ccccc3)cc12 [compound 8, reference compound] | inhibited OGFOD1 |
| O=C(O)CNC(=O)c1c(O)c2ccccc2n(Cc2ccccc2)c1=O [compound 9, reference compound] | inhibited OGFOD1 |
| trinexapac‐ethyl [compound 5, reference compound] | inhibition of OGFOD1 |

Target: T2, PHD2181-426 (Homo sapiens, UniProt Q9GZT9)
T2 construct: 181-426 (1 µM) was
T2 sequence (Q9GZT9 181-426 limits assumed): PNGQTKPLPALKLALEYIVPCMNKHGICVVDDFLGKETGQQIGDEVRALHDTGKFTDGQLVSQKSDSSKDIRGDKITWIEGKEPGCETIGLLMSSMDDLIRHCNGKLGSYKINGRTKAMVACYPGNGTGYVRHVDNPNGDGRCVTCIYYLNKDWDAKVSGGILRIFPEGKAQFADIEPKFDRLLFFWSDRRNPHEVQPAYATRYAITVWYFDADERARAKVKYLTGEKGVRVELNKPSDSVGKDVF
Experiment: PHD2 inhibition assay: hydroxylation of HIF-1a CODD peptide by MALDI-TOF MS
Type: biochemical
Conditions: inhibitor 100 µM, PHD2181-426 1 µM (Figures S2, S8)
Description: as §1, §2
OGFOD1 was pre-incubated with inhibitor for 5 min before initiation of the reaction via the addition of the other reagents. Reactions were quenched with formic acid (1 % v/v) after 15 min. Samples were prepared for MALDI using α-cyano-4-hydrocinnamic acid (CHCA; prepared in 50 % acetonitrile) as a matrix. Dose-responses were assessed in 8-point triplicates, normalized to a no enzyme negative control and a no inhibitor positive control. Non-linear regression analysis was performed using Prism (GraphPad).
PHD2181-426 inhibition assays were performed by determining the extent of hydroxylation of a HIF-1a CODD peptide substrate (HIF-1a residues 556-574), using MALDI-TOF MS as described with OGFOD1.[8] The optimized hydroxylation assay involved incubation of PHD2181-426 (1 µM) with inhibitor (1 % v/v in DMSO) in the presence of (NH4)2Fe(SO4)2 (10 µM), the disodium salt of 2-oxoglutarate (60 µM), sodium ascorbate (100 µM), and HIF-1aCODD 556-574 (50 µM) in HEPES (50 mM, pH 7.5) at 37 °C for 15 min. The FIH assay employed MALDI-TOF MS detection of hydroxylation. Reactions consisted of FIH […]
(50 nM), ankyrin peptide (50 µM; […]), the disodium salt of 2- […]
oxoglutarate (100 µM), sodium ascorbate (100 µM), and (NH4)2Fe(SO4)2 (10 µM), and […]

| Compound | inhibition of PHD2 hydroxylation activity, in words |
| --- | --- |
| Cn1c(O)c(C(=O)c2ccccc2)c(=O)n(C)c1=O [compound 24] | Lack of inhibition |
| Cn1c(O)c(C(=O)Cc2ccccc2)c(=O)n(C)c1=O [compound 25] | Lack of inhibition |

Tested on: PHD enzymes in HeLa cells
Experiment: HIFα Western blot in HeLa cells (activity of PHD enzymes in cells)
Type: cell-based, human
Conditions: HeLa cells treated 5 h, anti-HIF-1α Western blot
Description: supplemented with 80 µM Zn(II), 70 µM of inhibitor, all in 50 mM Tris-d11, pH 7.5, 10 % D2O, […]
Cell Culture and Immunoblotting
HeLa cells were cultured in DMEM media supplemented with 10 % fetal bovine serum, 4 mM L-glutamine, 100 U/mL penicillin, and 100 µg/mL streptomycin. Cells were treated with the indicated compounds, prepared in 1% DMSO, for 5 h. Following a PBS buffer rinse, cells were lysed in urea/SDS buffer supplemented with 1 mM dithiothreitol. Cell extracts were analyzed by SDS-PAGE, electroblotted onto PVDF membranes (Millipore) and probed with anti-HIF-1α antibody (clone 54, BD Transduction Laboratories) at 1:1000 dilution for 1 h at room temperature. The HRP-conjugated secondary antibody was then applied at room temperature for 1 h. Target proteins were detected with SuperSignal Chemiluminescent […]
ADMET in vitro Predictors
S9 liver microsome stability assays and MDCK-MDR1 efflux assays were carried out for CCT3 and CCT4 by Cyprotex (UK). Additional details are provided later in the Supporting

| Compound | HIFα stabilization in HeLa cells, in words |
| --- | --- |
| CC(C)(C)OC(=O)c1ccc(-n2[nH]cc(-n3ccnn3)c2=O)nc1 [IOX4, reference compound] | inhibits the hydroxylation of HIFα, preventing proteasomal degradation |

Tested on: not given
Experiment: not given
Conditions: not given

| Compound | melting point [°C] |
| --- | --- |
| Cc1cccc(CCC(=O)c2c(O)n(C)c(=O)n(C)c2=O)c1 | 131 |
| Cc1ccc(CCC(=O)c2c(O)n(C)c(=O)n(C)c2=O)cc1 | 140 |
| Cn1c(O)c(C(=O)CCC2CCCCC2)c(=O)n(C)c1=O | 58 |
| Cn1c(O)c(C(=O)[C@H]2C[C@H]2c2ccccc2)c(=O)n(C)c1=O | 111 |
| Cn1c(O)c(C(=O)C2Cc3ccccc3C2)c(=O)n(C)c1=O | 120 |
| CC(CC(=O)c1c(O)n(C)c(=O)n(C)c1=O)c1ccccc1 (stereo not drawn) | 100 |

— PMC6471485, “Selective Inhibitors of a Human Prolyl Hydroxylase (OGFOD1) Involved in Ribosomal Decoding” (Chemistry (Weinheim an Der Bergstrasse, Germany), 2019)
